What was measured:
Type in all cases: biochemical
Tie-2 = biological target: T1, Tie-2 (Homo sapiens, UniProt Q02763); experiment: Tie-2-Kinase HTRF-Assay (assay 2); details: pIC50 class; 10 μM ATP; read-out: Enzymatic Tie 2 activity (assay 2)
T1 construct: fusion protein of GST and the intracellular domains of Tie-2; GST; made in house; host or cells: insect cells (Hi-5)
Source text: Tie2-inhibitory activity of compounds of the present invention was quantified employing two Tie2 HTRF assay as described in the following paragraphs.
A recombinant fusion protein of GST and the intracellular domains of Tie-2, expressed in insect cells (Hi-5) and purified by Glutathion-Sepharose affinity chromatography was used as kinase. Alternatively, commercially available GST-Tie2-fusion protein (Upstate Biotechnology, Dundee, Scotland) can be used As substrate for the kinase reaction the biotinylated peptide biotin-Ahx-EPKDDAYPLYSDFG (C-terminus in amid form) was used which can be purchased e.g. from the company Biosynthan GmbH (Berlin-Buch, Germany). Detection of phosphorylated product is achieved specifically by a trimeric detection complex consisting of the phosphorylated substrate, streptavidin-XLent (SA-XLent) which binds to biotin, and Europium Cryptate-labeled anti-phosphotyrosine antibody PT66 which binds to phosphorylated tyrosine.
Tie-2 (3.5 ng/measurement point) was incubated for 60 min at 22° C. in the presence of 10 μM adenosine-tri-phosphate (ATP) and 1 μM substrate peptide (biotin-Ahx-EPKDDAYPLYSDFG-NH2) with different concentrations of test compounds (0 μM and concentrations in the range 0.001-20 μM) in 5 μl assay buffer [50 mM Hepes/NaOH pH 7, 10 mM MgCl2, 0.5 mM MnCl2, 1.0 mM dithiothreitol, 0.01% NP40, protease inhibitor mixture (“Complete w/o EDTA” from Roche, 1 tablet per 2.5 ml), 1% (v/v) dimethylsulfoxide]. The reaction was stopped by the addition of 5 μl of an aqueous buffer (25 mM Hepes/NaOH pH 7.5, 0.28% (w/v) bovine serum albumin) containing EDTA (90 mM) and the HTRF (Homogeneous Time Resolved Fluorescence) detection reagents streptavidine-XLent (0.2 μM, from Cis Biointemational, Marcoule, France) and PT66-Eu-Chelate (0.3 ng/μl; a europium-chelate labelled anti-phospho-tyrosine antibody from Perkin Elmer).
(§1) The resulting mixture was incubated 1 h at 22° C. to allow the binding of the biotinylated phosphorylated peptide to the streptavidine-XLent and the PT66-Eu-Chelate. Subsequently the amount of phosphorylated substrate peptide was evaluated by measurement of the resonance energy transfer from the PT66-Eu-Chelate to the streptavidine-XLent. Therefore, the fluorescence emissions at 620 nm and 665 nm after excitation at 350 nm was measured in a HTRF reader, e.g. a Rubystar (BMG Labtechnologies, Offenburg, Germany) or a Viewlux (Perkin-Elmer). The ratio of the emissions at 665 nm and at […] was taken as the measure for the amount of phosphorylated substrate peptide. The data were normalised (enzyme reaction without inhibitor=0 (% inhibition, all other assay components but no enzyme=100% inhibition) and IC50 values were calculated by a 4 parameter fit using an inhouse software.

human VEGFR2 = biological target: T2, human VEGFR2 (Homo sapiens, UniProt P35968); experiment: VEGFR2 HTRF Assay (assay 5); details: pIC50 class; 10 μM ATP; read-out: Enzymatic VEGFR2 activity (assay 5)
T2 construct: GST-tagged recombinant kinase domain of the human VEGFR2; GST; host or cells: SF-9 cells
T2 sequence (P35968 834-1162 limits assumed): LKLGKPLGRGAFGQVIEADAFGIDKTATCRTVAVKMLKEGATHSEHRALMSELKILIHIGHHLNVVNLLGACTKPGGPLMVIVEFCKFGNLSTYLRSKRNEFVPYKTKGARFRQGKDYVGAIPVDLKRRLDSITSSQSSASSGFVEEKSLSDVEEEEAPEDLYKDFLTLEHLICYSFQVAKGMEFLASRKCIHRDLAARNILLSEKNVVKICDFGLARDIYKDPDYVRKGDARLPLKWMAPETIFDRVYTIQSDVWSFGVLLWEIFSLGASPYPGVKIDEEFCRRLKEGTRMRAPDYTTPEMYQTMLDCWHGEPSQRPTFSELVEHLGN
Source text: Assay 5: VEGFR2 HTRF Assay
VEGFR2 inhibitory activity of compounds of the present invention was quantified employing the VEGFR2 HTRF assay as described in the following paragraphs.
GST-tagged recombinant kinase domain of the human VEGFR2 expressed in SF-9 cells was used as kinase. As substrate for the kinase reaction the biotinylated peptide biotin-Ahx-DFGLARDMYDKEYYSVG (C-terminus in acid form) was used which can be purchased e.g. form the company Biosynthan GmbH (Berlin-Buch, Germany). VEGFR2 was incubated for 45 min at 22° C. in the presence of different concentrations of test compounds in 5 μl assay buffer [50 mM Hepes/NaOH pH 7.0, 25 mM MgCl2, 5 mM MnCl2, 1.0 mM dithiothreitol, 0.1 mM sodium ortho-vanadate, 10 μM adenosine-tri-phosphate (ATP), 0.5 μM substrate, 0.001% (v/v) Nonidet-P40 (Sigma), 1% (v/v) dimethylsulfoxide]. The concentration of VEGFR2 was adjusted depending of the activity of the enzyme lot and was chosen appropriate to have the assay in the linear range. The reaction was stopped by the addition of 5 μl of a solution of HTRF detection reagents (0.1 μM streptavidine-XLent and 2 nM PT66-Eu-Chelate, an europium-chelate labelled anti-phospho-tyrosine antibody from Perkin Elmer) in an aqueous EDTA-solution (125 mM EDTA, 0.2% (w/v) bovine serum albumin in 50 mM HEPES/NaOH pH 7.0).
as §1, with “incubated for” for “incubated”, “substrate” for “substrate peptide”, “substrate.” for “substrate peptide.”, “normalized” for “normalised”, “inhibitor=0%” for “inhibitor=0 (%”

[1] = biological target: T3, human insuline receptor (Ins-R) (Homo sapiens, UniProt P06213); experiment: Insulin Receptor HTRF Assay (assay 4); details: pIC50 class; 10 μM ATP; read-out: Enzymatic InsR activity (assay 4)
T3 construct: GST-tagged recombinant kinase domain of the human insuline receptor; GST; purchased ProQinase, Freiburg, Germany; host or cells: SF-9 cells
T3 sequence (P06213 1023-1298 limits assumed): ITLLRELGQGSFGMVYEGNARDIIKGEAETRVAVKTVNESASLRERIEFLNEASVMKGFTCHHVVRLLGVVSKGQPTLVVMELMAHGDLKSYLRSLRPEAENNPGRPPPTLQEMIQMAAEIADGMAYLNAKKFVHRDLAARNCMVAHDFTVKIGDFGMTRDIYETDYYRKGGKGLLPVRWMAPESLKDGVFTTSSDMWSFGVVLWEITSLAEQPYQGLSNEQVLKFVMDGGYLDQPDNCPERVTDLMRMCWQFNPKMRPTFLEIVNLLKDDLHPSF
Protocol: Assay 4: Insulin Receptor HTRF Assay
Inhibitory activity of compounds against the kinase activity of the insulin receptor was quantified employing the Ins-R HTRF assay as described in the following paragraphs.
GST-tagged recombinant kinase domain of the human insuline receptor (Ins-R, purchase from ProQinase, Freiburg, Germany) expressed in SF-9 cells was used as kinase. As substrate for the kinase reaction biotinylated poly-(Glu, Tyr) (Cis biointernational, France) was used.
Ins-R was incubated for 20 min at 22° C. in the presence of different concentrations of test compounds in 5 μl assay buffer [50 mM Hepes/NaOH pH 7, 15 mM MnCl2, 1 mM dithiothreitol, 0.1 μM sodium ortho-vanadate, 0.015% (v/v) PEG20000, 10 μM adenosine-tri-phosphate (ATP), 0.3 μg/ml substrate, 1% (v/v) dimethylsulfoxide]. The concentration of Ins-R was adjusted depending of the activity of the enzyme lot and was chosen appropriate to have the assay in the linear range, typical concentrations were in the range of 10 pg/μl. The reaction was stopped by the addition of 5 μl of a solution of HTRF detection reagents (0.1 μM streptavidine-XLent and 1 nM PT66-Eu-Chelate, an europium-chelate labelled anti-phospho-tyrosine antibody from Perkin Elmer) in an aqueous EDTA-solution (80 mM EDTA, 0.2% (w/v) bovine serum albumin in 50 mM HEPES/NaOH pH 7.0).
as §1, with “substrate” for “substrate peptide”, “substrate.” for “substrate peptide.”, “inhibitor=0%” for “inhibitor=0 (%”

T1 sequence (Q02763 770-1124 limits assumed, species assumed): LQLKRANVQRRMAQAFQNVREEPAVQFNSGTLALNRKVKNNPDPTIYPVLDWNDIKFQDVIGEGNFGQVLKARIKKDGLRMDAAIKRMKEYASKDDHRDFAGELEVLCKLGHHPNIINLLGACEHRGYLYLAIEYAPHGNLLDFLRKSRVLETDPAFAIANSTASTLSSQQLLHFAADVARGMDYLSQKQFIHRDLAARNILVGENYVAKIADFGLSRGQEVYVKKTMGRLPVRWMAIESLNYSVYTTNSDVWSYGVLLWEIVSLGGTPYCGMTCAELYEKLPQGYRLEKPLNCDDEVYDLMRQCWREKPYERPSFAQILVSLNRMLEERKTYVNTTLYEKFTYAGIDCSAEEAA

IC50 (Tie-2): < 1000 nM
IC50 (human VEGFR2): < 1000 nM
IC50 [1]: ≥ 10 µM
SMILES: Cn1ncc2c(C#Cc3cc(NC(=O)Nc4cccc(C(F)(F)F)c4)ccc3F)cncc21 [Example 2.6, 1-[4-Fluoro-3-(1-methyl-1H-pyrazolo[3,4-c]pyridin-4-ylethynyl)-phenyl]-3-(3-trifluoromethyl-phenyl)-urea]
